Where a name gives a salt, the structure may show the parent alone. Read-outs that look alike come from different tables or passages of the source. Blank lines part the entries; values can stand above or below the molecule they belong to.
Test system: amyloid β production in transfected H4 (human neuroglioma) cells stably expressing APP constructs
Assay: In vitro cell-based assay of inhibitors of amyloid β production (ELISA)
Settings: amyloid β in medium by ELISA
How it was run: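 Cells expressing wild-type or variant APP were plated ≥6 h before medium was replaced with compound-containing medium (initial screen 10-100 μM) and incubated ~16 h. Secreted Aβ in medium was quantified by sandwich ELISA (C-terminal-specific mouse monoclonal capture, N-terminal rabbit polyclonal detection) against an Aβ standard curve.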

[1] = transfected H4 cells stably expressing APP constructs, approximately 16 hours incubation, read-out: ACTIVITY (IC50, inhibition of amyloid β production)
[2] = Homo sapiens, 16 h, transfected H4 cells stably expressing APP constructs, approximately 16 hours incubation, read-out: ACTIVITY (IC50, inhibition of amyloid β production)
[3] = transfected H4 cells stably expressing APP, approximately 16 hours incubation, read-out: ACTIVITY (IC50, inhibition of amyloid β production)
[4] = transfected H4 cells stably expressing APP, approximately 16 hours incubation, Table B, read-out: ACTIVITY (IC50, inhibition of amyloid β production)
[5] = Homo sapiens, 16 h, transfected H4 cells expressing APP, approximately 16 hours incubation, read-out: ACTIVITY (IC50, inhibition of amyloid β production)
[6] = Homo sapiens, 16 h, transfected H4 cells stably expressing APP, approximately 16 hours incubation, read-out: ACTIVITY (IC50, inhibition of amyloid β production)
[7] = Table B, transfected H4 cells stably expressing APP, approximately 16 hours incubation, read-out: ACTIVITY (inhibitory concentration IC50, inhibition of amyloid β production)

Molecule: C[C@H](CCC[S+](C)[O-])N(c1cc(Cl)ccc1F)S(=O)(=O)c1ccc(Cl)cc1 (stereo partly drawn) [Example 1167, 4-chloro-N-[5-chloro-2-fluorophenyl]-N-[1(R)-methyl-(4-methylsulfinyl)butyl]benzenesulfonamide]
IC50 [1]: ≤ 25 nM

Molecule: O=S(=O)(c1ccc(Cl)cc1)N(Cc1ccccc1OCCCn1ccnc1)c1ccccc1 [Example 302, 4-Chloro-N-{2-[3-(1H-imidazol-1-yl)propoxy]benzyl}-N-phenylbenzenesulfonamide Hydrochloride]
IC50 [4]: 50 to 100 nM

Molecule: O=S1(=O)CCN(CCCOc2ccccc2CN(c2ccccc2)S(=O)(=O)c2ccc(Cl)cc2)CC1 [Example 492, 4-chloro-N-{2-[3-(1,1-dioxido-4-thiomorpholinyl)propoxy]benzyl}-N-phenylbenzenesulfonamide hydrochloride]
IC50 (Homo sapiens, 16 h, transfected H4 cells stably expressing APP, approximately 16 hours incubation, Table B, read-out: ACTIVITY (IC50, inhibition of amyloid β production)): 100 to 500 nM

Molecule: CN(C)CCCOc1ccccc1CN(c1ccccc1)S(=O)(=O)c1cccc2c(N(C)C)cccc12 [Example 1085, 5-(dimethylamino)-N-{2-[3-(dimethylamino)propoxy]benzyl}-N-phenyl-1-naphthalenesulfonamide]
IC50 [2]: > 10000 nM

Molecule: O=S(=O)(c1ccc(Cl)cc1)N(Cc1cc(Cl)ccc1OCCCN1CCC(O)CC1)c1ccccc1 [Example 1011, 4-chloro-N-{5-chloro-2-[3-(4-hydroxy-1-piperidinyl)propoxy]benzyl}-N-phenylbenzenesulfonamide hydrochloride]
IC50 [6]: > 500 nM

Molecule: CC1CC(C)CN(CCCOc2ccccc2CN(c2ccccc2)S(=O)(=O)c2ccc(Cl)cc2)C1 (stereo not drawn) [Example 926, 4-chloro-N-{2-[3-(3,5-dimethyl-1-piperidinyl)propoxy]benzyl}-N-phenylbenzenesulfonamide hydrochloride]
IC50 [6]: > 500 nM

Molecule: CC1CC(C)CN(CCCOc2ccccc2CN(c2ccccc2)S(=O)(=O)c2ccc(Cl)cc2)C1 (stereo not drawn) [Example 303, 4-Chloro-N-{2-[3-(3,5-dimethyl-1-piperidinyl)propoxy]benzyl}-N-phenylbenzenesulfonamide Hydrochloride]
IC50 [4]: 50 to 100 nM

Molecule: C[C@H](COC(=O)N(C)CCCn1ccnc1)N(c1cc(Cl)ccc1Cl)S(=O)(=O)c1ccc(Cl)cc1 [Example 1250, 4-Chloro-N-(2,5-dichlorophenyl)-N-[2-[[[N′-[3-(1H-imidazol-1-yl)propyl]-N′-methylamino]carbonyl]oxy]-(R)-1-methylethyl]benzenesulfonamide]
IC50 [1]: ≤ 25 nM

Molecule: CC1CN(C(=O)CCCC[C@@H](C)N(c2cc(Cl)ccc2F)S(=O)(=O)c2ccc(Cl)cc2)CCS1(=O)=O (stereo partly drawn) [Example 1272]
IC50 [1]: ≤ 25 nM

Molecule: C[C@H](CCCS(C)(=O)=O)N(c1cc(F)ccc1F)S(=O)(=O)c1ccc(Cl)cc1 [Example 1170, 4-chloro-N-[2,5-difluorophenyl]-N-[1(R)-methyl-(4-methylsulfonyl)butyl]benzenesulfonamide]
IC50 [1]: ≤ 25 nM

Molecule: C[C@H](O)CCOC(c1ccccc1)(c1ccccc1)c1ccccc1 [Example 25, (S)-4-triphenylmethylyloxy-2-butanol]
IC50 [7]: ≤ 25 nM

Molecule: COC(=O)[C@@H](NC(=O)CCC[C@@H](C)N(c1cc(Cl)ccc1F)S(=O)(=O)c1ccc(Cl)cc1)C(C)C [Example 1264, (R)-4-Chloro-N-(5-chloro-2-fluorophenyl)-N-[5-[N-(S)-[1-(methoxycarbonyl)-2-methylpropyl]amino]-1-methyl-6-oxopentyl]benzenesulfonamide]
IC50 [1]: 100 to 500 nM

Molecule: CCCCOc1ccc(C(=O)N2CCCCC2CCOc2ccccc2CN(c2cc(F)ccc2F)S(=O)(=O)c2ccc(Cl)cc2)cc1 (stereo not drawn) [Example 899, N-(2-{2-[1-(4-butoxybenzoyl)-2-piperidinyl]ethoxy}benzyl)-4-chloro-N-(2,5-difluorophenyl)benzenesulfonamide]
IC50 [6]: > 500 nM

Molecule: (2E)-3-[2-({[(4-chlorophenyl)sulfonyl]anilino}methyl)phenyl]-N-methoxy-N-methyl-2-propenamide [Example 1034]
IC50 [3]: > 500 nM

Molecule: CC(C)[C@H](NC(=O)CCCC[C@@H](C)N(c1cc(Cl)ccc1F)S(=O)(=O)c1ccc(Cl)cc1)C(=O)O [Example 1262, (R)-4-Chloro-N-(5-chloro-2-fluorophenyl)-N-[6-[N-(S)-[1-(carboxy)-2-methylpropyl]amino]-1-methyl-6-oxohexyl]benzenesulfonamide]
IC50 [1]: ≤ 25 nM

Results, then the molecule that gave them:

IC50 [2]: 100 to 500 nM
Molecule: C[C@H](CCCS(=O)(=O)O)N(c1cc(Cl)ccc1CO)S(=O)(=O)c1ccc(Cl)cc1 [Example 1231, (4R)-4-[N-[5-chloro-2-(hydroxymethyl)phenyl][(4-chlorophenyl)sulfonyl]amino]pentylsulfonic acid]

IC50 [3]: 100 to 500 nM
Molecule: N-{3-[2-({[(4-chlorophenyl)sulfonyl]-2,5-difluoroanilino}methyl)phenoxy]propyl}-N-methyl-4-nitrobenzamide [Example 872]

IC50 [4]: 100 to 500 nM
Molecule: COC(=O)CS(=O)(=O)CCc1cc(F)ccc1[C@@H](C)N(c1cc(F)ccc1F)S(=O)(=O)c1ccc(Cl)cc1 [Example 478, Methyl ({2-[2-((1R)-1-{[(4-chlorophenyl)sulfonyl]-2,5-difluoroanilino}ethyl)-5-fluorophenyl]ethyl}sulfonyl)acetate]

IC50 (Homo sapiens, 16 h, transfected H4 cells stably expressing APP, approx. 16 h incubation, read-out: ACTIVITY (IC50, inhibition of amyloid β production)): 100 to 500 nM
Molecule: O=S(=O)(c1ccc(Cl)cc1)N(Cc1ccccc1OCCC1CCCCN1Cc1cc(F)cc(F)c1)c1cc(F)ccc1F (stereo not drawn) [Example 746, 4-chloro-N-(2-{2-[1-(3,5-difluorobenzyl)-2-piperidinyl]ethoxy}benzyl)-N-(2,5-difluorophenyl)benzenesulfonamide]

IC50 [3]: > 500 nM
Molecule: C[C@H](c1ccc(F)cc1CCCC(=O)O)N(c1cc(F)ccc1F)S(=O)(=O)c1ccc(Cl)cc1 [Example 1080, 4-[2-((1R)-1-{[(4-chlorophenyl)sulfonyl]-2,5-difluoroanilino}ethyl)-5-fluorophenyl]butanoic acid]

IC50 [5]: > 500 nM
Molecule: C[C@H](C(=O)NCCc1ccc(O)cc1)N(c1cc(Cl)ccc1F)S(=O)(=O)c1ccc(Cl)cc1 [Example 1331]

IC50 [3]: > 500 nM
Molecule: C[C@H](c1ccc(F)cc1CCCC(=O)O)N(c1cc(F)ccc1F)S(=O)(=O)c1ccc(Cl)cc1 [Example 1069, 4-[2-((1R)-1-{[(4-chlorophenyl)sulfonyl]-2,5-difluoroanilino}ethyl)-5-fluorophenyl]butanoic acid]

IC50 [3]: 100 to 500 nM
Molecule: N-{3-[2-(1-{[(4-chlorophenyl)sulfonyl]-2,5-difluoroanilino}ethyl)phenoxy]propyl}-4-methoxybenzamide [Example 819]

IC50 [3]: > 500 nM
Molecule: 2-[2-(1-{[(4-chlorophenyl)sulfonyl]-2,5-difluoroanilino}ethyl)phenoxy]-N-methylacetamide [Example 1064]

IC50 [6]: > 500 nM
Molecule: O=S(=O)(c1ccc(Cl)cc1)N(Cc1ccccc1OCCCN1CCCCC1)C1CCc2ccccc21 (stereo not drawn) [Example 1012, 4-chloro-N-(2,3-dihydro-1H-inden-1-yl)-N-{2-[3-(1-piperidinyl)propoxy]benzyl}benzenesulfonamide hydrochloride]

IC50 (transfected H4 cells stably expressing APP, approx. 16 h incubation, read-out: ACTIVITY (IC50, inhibition of amyloid β production)): 100 to 500 nM
Molecule: N-{3-[2-(1-{[(4-chlorophenyl)sulfonyl]-2,5-difluoroanilino}ethyl)phenoxy]propyl}-N-methyl-1-naphthalenesulfonamide [Example 776]

IC50 [7]: 25 to 50 nM
Molecule: C[C@H](CC[S+]([O-])CC(=O)O)N(c1cc(Cl)ccc1Cl)S(=O)(=O)c1ccc(Cl)cc1 (stereo partly drawn) [Example 182]

IC50 [1]: > 500 nM
Molecule: C[C@H](CC[S+]([O-])CC(=O)O)N(c1cc(Cl)ccc1Cl)S(=O)(=O)c1ccc(Cl)cc1 (stereo partly drawn) [Example 1196, (6R)-6-[(2,5-dichlorophenyl)-[(4-chlorophenyl)sulfonyl]-amino]-3-thioheptanoic acid, 3-oxide]

IC50 [6]: > 500 nM
Molecule: CS(=O)(=O)c1ccccc1N(Cc1ccccc1OCCCN1CCCCC1)S(=O)(=O)c1ccc(Cl)cc1 [Example 1027, 4-chloro-N-[2-(methylsulfonyl)phenyl]-N-{2-[3-(1-piperidinyl)propoxy]benzyl}benzenesulfonamide hydrochloride]

IC50 [2]: ≤ 25 nM
Molecule: CC(CC[C@@H](C)N(c1cc(Cl)ccc1Cl)S(=O)(=O)c1ccc(Cl)cc1)N1CCSC1C(=O)O (stereo partly drawn) [Example 1106, 4-chloro-N-(2,5-dichlorophenyl)-N-[4-(2-carboxy-3-thiazolidinyl)-1(R)-methylpentyl]benzenesulfonamide]

IC50 [6]: 100 to 500 nM
Molecule: CC#CCCCN(Cc1ccccc1OCCCN1CCCCC1)S(=O)(=O)c1ccc(Cl)cc1 [Example 842, 4-chloro-N-(4-hexynyl)-N-{2-[3-(1-piperidinyl)propoxy]benzyl}benzenesulfonamide hydrochloride]

IC50 [5]: > 10000 nM
Molecule: C[C@H](CCCOC(=O)NCCn1ccnc1)N(c1cc(Cl)ccc1CO)S(=O)(=O)c1ccc(Cl)cc1 [Example 1292]

IC50 [6]: > 500 nM
Molecule: CC(C)(C)OC(=O)n1c(-c2ccccc2OCCCN2CCCCC2)cc2ccccc21 [Example 1021, tert-butyl 2-{2-[3-(1-piperidinyl)propoxy]phenyl}-1H-indole-1-carboxylate trifluoroacetate]
